Patent EP3884941A1, “INFLAMMASOME INHIBITORS AND USE THEREOF” (CENTRO DE INVESTIGACION PRINCIPE FELIPE, priority 2020, dated 2021)

Experiments:
[1] = system: NLRC4 inflammasome; test: NLRC4 inflammasome activation, Salmonella Typhimurium, THP-1 cells; assay type: cell-based, human; conditions: MM01 10 µM
Procedure: (§1) The materials and methods employed in these experiments are now described. The molecules were evaluated in the THP-1, or PMA-differentiated THP-1 cells (50 nM PMA for 24h) as described in Example 3. To stimulate NLRP1 inflammasome, cells were either mock-treated or primed with compounds at the indicated concentrations for 30 min, followed by treatment with 100 ng/mL LPS (Sigma) and 50 µg/ml MDP (Sigma) for 6 h at 37°C. In the case of NLRC4 inflammasome induction, cells were pretreated with the compounds for 30 min and then cells were stimulated for 3 h with Salmonella Typhimurium (MOI 5). To induce AIM2 inflammasome, cells were pretreated in the same conditions as before and transfected with poly(dA:dT) (200 µg/ml; Sigma) overnight using Lipofectamine 2000 (Invitrogen). Both IL-1β secretion and the release of IL-18 were monitored as previously described in Example 3.

[2] = target: T1, caspase-3 (Homo sapiens, UniProt P42574); test: Caspase-3 activation assay; assay type: biochemical; conditions: recombinant caspase-3; MM01 5 µM (Figure 2A)
T1 sequence (P42574 29-277): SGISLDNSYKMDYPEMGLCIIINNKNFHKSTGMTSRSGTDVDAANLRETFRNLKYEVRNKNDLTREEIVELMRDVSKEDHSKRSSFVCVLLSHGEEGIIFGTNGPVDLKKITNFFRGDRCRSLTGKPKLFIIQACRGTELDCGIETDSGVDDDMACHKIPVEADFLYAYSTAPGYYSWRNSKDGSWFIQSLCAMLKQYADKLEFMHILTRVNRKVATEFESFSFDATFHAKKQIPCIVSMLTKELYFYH
Procedure: Compounds were incubated with caspase-3 (2 nM) in reaction buffer (100 mM NaCl, 50 mM Hepes pH 7.4, 10 mM DTT, 1 mM EDTA, 10% glycerol, 0.1% CHAPS) for 20 min at RT. Enzyme activity was spectrophotometrically monitored by adding Ac-DEVD-pNA (200 µM) substrate.

[3] = system: human NLRP1 inflammasome; test: NLRP1 inflammasome activation, LPS plus MDP, THP-1 cells; assay type: cell-based
Procedure: as §1

[4] = system: ASC oligomerization; test: ASC oligomerization assay (DSS crosslinking, immunoblotting); assay type: cell-based, human; conditions: crosslinked pellets, LPS plus nigericin; MM01 10 µM, VX-765 5 µM
Procedure: PMA-differentiated THP-1 cells were seeded at 1x10^6 cells/ml in 6-well plates. Cells were treated with compounds for 30 min, primed with 100 ng/ml LPS for 3h and then stimulated with 10 µM nigericin for 30 min. The supernatants were removed, cells were rinsed in ice-cold PBS and lysed in NP-40 buffer (20 mM HEPES-KOH pH 7.5, 150 mM KCL, 1% NP-40 plus protease inhibitors). Lysates were centrifuged at 330 × g for 10 min at 4 °C. The pellets were washed and resuspended in PBS plus 2 mM disuccinimidyl suberate (DSS) and incubated at RT for 30 min with rotation. Samples were then centrifuged at 330 × g for 10 min at 4 °C. The supernatant was removed, and the cross-linked pellets were resuspended in sample buffer, boiled and analyzed by immunoblotting.

[5] = system: NLRP3 inflammasome; test: human PBMCs cellular assay, LPS plus ATP; assay type: cell-based; conditions: IL-1β and LDH release; MM01 1, 5 or 10 µM (Figure 5E, 5F)
Procedure: Human peripheral blood mononuclear cells (PBMCs) are lymphocytes and monocytes. PBMCs were separated from the whole blood by a density gradient centrifugation method using Ficoll Histopaque. Purified PBMCs were plated in 24-well plates at 5000000 cells/well in free-serum RPMI medium. Cells were primed for 3 h with 10 ng/ml pure LPS followed by 4 h with compounds and 5 mM ATP. Supernatants were harvested and clarified by centrifugation at 1500 rpm at RT and cytokine and caspase-1 activation analysis was performed as previously described.

[6] = target: T2, Recombinant caspase-1 (Homo sapiens, UniProt P29466); test: caspase-1 in vitro activation assay (secondary screening); assay type: biochemical; conditions: preactivated recombinant caspase-1
T2 sequence (P29466 120-297 limits assumed): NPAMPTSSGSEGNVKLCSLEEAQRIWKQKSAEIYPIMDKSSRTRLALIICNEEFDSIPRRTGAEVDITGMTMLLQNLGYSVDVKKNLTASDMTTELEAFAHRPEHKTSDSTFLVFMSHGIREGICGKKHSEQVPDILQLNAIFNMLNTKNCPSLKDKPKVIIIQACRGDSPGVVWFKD
T2 sequence (P29466 317-404 limits assumed): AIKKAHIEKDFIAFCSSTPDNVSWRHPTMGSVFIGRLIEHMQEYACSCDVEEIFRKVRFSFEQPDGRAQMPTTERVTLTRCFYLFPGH
Procedure: Recombinant caspase-1 (50 nM) was incubated with the indicated concentrations of compounds for 20 min at RT in Assay Buffer. Then fluorogenic substrate Ac-WEHD-AFC (80 µM) was added, and activity was monitored in a Wallac Victor workstation. Data are reported as the percentage of inhibition compared with the absence of the inhibitor.

## C=CCN1C(=O)/C(=C2/C(=O)Nc3ccccc32)SC1=S [MM01]
[1]; THP-1, Salmonella infection (MOI 5)
  cytokine maturation and release: impaired
[1]; THP-1, Salmonella infection, LDH
  pyroptosis: decrease
[2]
  caspase-3 activity: do not act on
[3]; THP-1, LPS 100 ng/ml + MDP 50 µg/ml
  IL-18 release: avoided
[3]; THP-1, LPS 100 ng/ml + MDP 50 µg/ml, MM01 1, 2.5 or 5 µM
  IL-1β release: avoided
[3]; THP-1, LPS 100 ng/ml + MDP 50 µg/ml, pretreatment
  procaspase-1 activation: avoided
[3]; THP-1, LPS + MDP, LDH release
  pyroptotic cell death: protected
[4]
  ASC oligomerization: inhibited
[5]
  LPS/ATP stimulation of isolated human PBMCs: inhibits
[6]
  caspase-1 activity: do not act on
